Assay results as given in patent US20230241233A1, “ORAL PHARMACEUTICAL COMPOSITIONS COMPRISING LIPID CONJUGATES” (UNIVERSITAT HEIDELBERG, priority 2020, published 2023).

Experiments:
[1] = Pharmacokinetic evaluation of octreotide lipid conjugate in beagle dogs (Charles River Study No 47656 PAC); format: in vivo; conditions: dog, plasma, conjugate dose 0 mg, oral gavage octreotide 0.12 mg/kg, vs iv bolus 0.01 mg/kg, read-out: abs. bioavailability
Protocol: Between the cycles, a washout phase of one week was performed.
First, animals received an intravenous bolus injection of 0.01 mg/kg octreotide. The consecutive administrations were given orally by gavage. After a wash-out of one week animals #1 and #2 received 0.12 mg/kg free octreotide and animals #3 and #4 received 0.12 mg/kg octreotide with 0.3 mg/kg lipid-conjugate. After a wash-out of one week animals #1 and #2 received 0.12 mg/kg free octreotide with 1 mg/kg lipid-conjugate and animals #3 and #4 received 0.12 mg/kg octreotide with 3 mg/kg lipid-conjugate. After a wash-out of one week animals #1 and #2 received 0.12 mg/kg free octreotide with 10 mg/kg lipid-conjugate and animals #3 and #4 received 0.12 mg/kg octreotide with 30 mg/kg lipid-conjugate. After a wash-out of one week animals #1 and #2 received 0.012 mg/kg free octreotide with 1 mg/kg lipid-conjugate and animals #3 and #4 received 1.2 mg/kg octreotide with 1 mg/kg lipid-conjugate.

[2] = Bioavailability of octreotide SEDDS formulation in beagle dogs; conditions: dog, plasma, oral, 1.5 mg/animal
Protocol: The administration of octreotide in SEDDS formulation was investigated in a study in beagle dogs at Charles River, Evreux, France (Study No 47656 PAC and 48482 PAC). […] Animals were treated with octreotide in SEDDs formulation, or octreotide alone, prepared in citrate buffer (100 mM, pH 5.5), by single oral administration via gavage. For determination of the absolute bioavailability plasma concentrations after intravenous bolus injection (in PBS) were determined. Between the cycles, a wash-out phase of one week was performed.
Plasma concentrations of all investigated peptide therapeutics were determined by quantification using a validated UPLC-MS/MS assay (according to the pertinent recommendations for bioanalytical method development of the US FDA and EMA). All assays were performed on a Waters Xevo TQ-XS triple quadrupole tandem mass spectrometer coupled to a Waters Acquity classic UPLC using C18 columns, heated electrospray ionization (ESI), and selected ion monitoring in the positive ion mode.

Compound: C[C@@H](O)[C@@H]1NC(=O)[C@H](CCCCN)NC(=O)[C@@H](Cc2c[nH]c3ccccc23)NC(=O)[C@H](Cc2ccccc2)NC(=O)[C@@H](NC(=O)[C@H](N)Cc2ccccc2)CSSC[C@@H](C(=O)N[C@H](CO)[C@@H](C)O)NC1=O [octreotide]
- bioavailability [1]: 2.1%
- bioavailability [2]: 2.1%
